Laboratory results taken from patent US20140315812A1, “AMORPHOUS EZATIOSTAT ANSOLVATE” (Telik, Inc., priority 2011, published 2014).
Where two headings read alike, the source gives them in different places.

Legend:
[1] = ezatiostat hydrochloride in a liposomal injectable formulation, MDS patients; cited from earlier work
[2] = in vitro; cited from earlier work
[3] = in vivo; cited from earlier work
[4] = tested on: white blood cell production; conditions: cited from earlier work
[5] = tested on: hematopoietic progenitor cells; conditions: normal human peripheral blood; cited from earlier work
[6] = tested on: HL-60 promyelocytic leukemia cells; conditions: in vitro; cited from earlier work
[7] = Stability of the amorphous form by visual inspection after storage; type: physicochemical
Protocol: The stability of the amorphous form was evaluated by visual inspection of a sample of the amorphous form prepared above after being stored at about 0-5° C. for about 8 months.

## CCOC(=O)[C@@H](N)CCC(=O)N[C@@H](CSCc1ccccc1)C(=O)N[C@@H](C(=O)OCC)c1ccccc1 [Ezatiostat]
[1]
  hematologic improvement: multi-lineage hematologic improvement
  tolerability: well tolerated
[2]
  potentiation of the activity of cytotoxic agents: potentiate the activity of cytotoxic agents
[3]
  potentiation of the activity of cytotoxic agents: potentiate the activity of cytotoxic agents
[4]; animals in which white blood cells were depleted by treatment with cisplatin or fluorouracil
  white blood cell production: increase white blood cell production
[4]; normal animals
  white blood cell production: increase white blood cell production
[5]
  colony formation of hematopoietic progenitor cells: stimulate colony formation of all three lineages
[6]
  differentiation of HL-60 promyelocytic leukemia cells: induce the differentiation

## CCOC(=O)[C@@H](N)CCC(=O)N[C@@H](CSCc1ccccc1)C(=O)N[C@@H](C(=O)OCC)c1ccccc1.Cl [amorphous form, ezatiostat hydrochloride]
[7]; stored at about 0-5° C. for about 8 months
  visual inspection (color, texture, flowability, crystal formation): No change with respect to color, texture and flowability of the sample and no crystal formation was observed
[7]; under 0-5° C.
  time for which the amorphous form is stable: at least 8 months
